Data: patent US10039839B2, “Compounds that participate in cooperative binding and uses thereof” (Warp Drive Bio, Inc., priority 2015, dated 2018)
Square brackets hold non-standard residues; d marks the D form. Peptide text beside a SMILES is read from it. MeBmt = C/C=C/C[C@@H](C)[C@@H](O)[C@H](NC)C(=O)O; NMeY = CN[C@@H](Cc1ccc(O)cc1)C(=O)O; NMeF = CN[C@@H](Cc1ccccc1)C(=O)O; NMeI = CC[C@H](C)[C@H](NC)C(=O)O; NMeT = CN[C@H](C(=O)O)[C@@H](C)O; NMeL = CN[C@@H](CC(C)C)C(=O)O; Tle = CC(C)(C)[C@H](N)C(=O)O; NMeNva = CCC[C@H](NC)C(=O)O; NMeV = CN[C@H](C(=O)O)C(C)C; NMeA = CN[C@@H](C)C(=O)O; dNMeA = CN[C@H](C)C(=O)O; Abu = CC[C@H](N)C(=O)O; Sar = CNCC(=O)O

The molecules below were run against T1, Cyclophilin A (Homo sapiens, UniProt P62937) (assay: biochemical). Details: not given.
T1 construct: made in house
T1 sequence (P62937 whole entry, species assumed): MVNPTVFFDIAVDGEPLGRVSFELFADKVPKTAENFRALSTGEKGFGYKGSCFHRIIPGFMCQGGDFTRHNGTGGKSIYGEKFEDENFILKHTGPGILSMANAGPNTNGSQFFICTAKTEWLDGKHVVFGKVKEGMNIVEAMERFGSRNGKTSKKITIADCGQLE
Format: binding
Description: This protocol utilizes Perkin Elmers AlphaLISA technology platform to detect cyclosporine analogues by measuring the inhibition of binding of biotinylated Cyclosporin A to FLAG tagged Cyclophilin A.
Add 20 uL of 6 nM Biotinylated CsA working stock to each well of the 96-well plate. Add 1 uL of test compound (100% DMSO) to each well of the plate using the Janus MTD head and P20 tips (except control wells). Add 1 uL of DMSO to negative control wells and 1 uL of 500 uM Cyclosporin A solution to positive control wells. In the dark, add 20 uL of combined Donor/Acceptor beads to each well. Incubate in the dark for 30 minutes at room temperature. […] Incubate in the dark for 60 minutes at room temperature.

Structure (SMILES)	% inhibition of CsA binding to Cyclophilin A
C/C=C/C[C@@H](C)[C@@H](O)[C@H]1C(=O)N[C@@H](CC)C(=O)N(C)CC(=O)N(C)[C@H](C)C(=O)N[C@@H](CC(C)C)C(=O)N(C)[C@@H](C)C(=O)N[C@@H](C)C(=O)N[C@H](C)C(=O)N(C)[C@@H](CC(C)C)C(=O)N(C)[C@@H](CC(C)C)C(=O)N(C)[C@@H](C(C)C)C(=O)N1C [C11] (cyclo([MeBmt][Abu][Sar][dNMeA]L[NMeA]A[dA][NMeL][NMeL][NMeV]))	93.73%
C/C=C/C[C@@H](C)[C@@H](O)[C@H]1C(=O)N[C@@H](CC)C(=O)N(C)CC(=O)N(C)[C@@H](CC(C)C)C(=O)N[C@@H](CC(C)C)C(=O)N(C)[C@@H](C)C(=O)N[C@@H](C)C(=O)N[C@H](C)C(=O)N(C)[C@@H](CC(C)C)C(=O)N(C)[C@@H](CC(C)C)C(=O)N(C)[C@@H](C(C)C)C(=O)N1C [C14] (cyclo([MeBmt][Abu][Sar][NMeL]L[NMeA]A[dA][NMeL][NMeL][NMeV]))	90.64%
C/C=C/C[C@@H](C)[C@@H](O)[C@H]1C(=O)N[C@@H](CC)C(=O)N(C)CC(=O)N(C)[C@@H](C)C(=O)N[C@@H](C)C(=O)N(C)CC(=O)N[C@@H](C)C(=O)N[C@H](C)C(=O)N(C)[C@@H](CC(C)C)C(=O)N(C)[C@@H](CC(C)C)C(=O)N(C)[C@@H](C(C)C)C(=O)N1C [C18] (cyclo([MeBmt][Abu][Sar][NMeA]A[Sar]A[dA][NMeL][NMeL][NMeV]))	97.88%
C/C=C/C[C@@H](C)[C@@H](O)[C@H]1C(=O)N[C@@H](CC)C(=O)N(C)CC(=O)N(C)[C@@H]([C@@H](C)CC)C(=O)N[C@@H](C(C)C)C(=O)N(C)CC(=O)N[C@@H](C)C(=O)N[C@H](C)C(=O)N(C)[C@@H](CC(C)C)C(=O)N(C)[C@@H](CC(C)C)C(=O)N(C)[C@@H](C(C)C)C(=O)N1C [C25] (cyclo([MeBmt][Abu][Sar][NMeI]V[Sar]A[dA][NMeL][NMeL][NMeV]))	99.63%
C/C=C/C[C@@H](C)[C@@H](O)[C@H]1C(=O)N[C@@H](CC)C(=O)N(C)CC(=O)N(C)[C@H](C)C(=O)N[C@@H](C(C)C)C(=O)N(C)CC(=O)N[C@@H](C)C(=O)N[C@H](C)C(=O)N(C)[C@@H](CC(C)C)C(=O)N(C)[C@@H](CC(C)C)C(=O)N(C)[C@@H](C(C)C)C(=O)N1C [C27] (cyclo([MeBmt][Abu][Sar][dNMeA]V[Sar]A[dA][NMeL][NMeL][NMeV]))	94.73%
C/C=C/C[C@@H](C)[C@@H](O)[C@H]1C(=O)N[C@@H](CC)C(=O)N(C)CC(=O)N(C)[C@@H](Cc2ccccc2)C(=O)N[C@@H](C(C)C)C(=O)N(C)CC(=O)N[C@@H](C)C(=O)N[C@H](C)C(=O)N(C)[C@@H](CC(C)C)C(=O)N(C)[C@@H](CC(C)C)C(=O)N(C)[C@@H](C(C)C)C(=O)N1C [C28] (cyclo([MeBmt][Abu][Sar][NMeF]V[Sar]A[dA][NMeL][NMeL][NMeV]))	98.94%
C/C=C/C[C@@H](C)[C@@H](O)[C@H]1C(=O)N[C@@H](CC)C(=O)N(C)CC(=O)N(C)CC(=O)N[C@@H](C(C)C)C(=O)N(C)CC(=O)N[C@@H](C)C(=O)N[C@H](C)C(=O)N(C)[C@@H](CC(C)C)C(=O)N(C)[C@@H](CC(C)C)C(=O)N(C)[C@@H](C(C)C)C(=O)N1C [C29] (cyclo([MeBmt][Abu][Sar][Sar]V[Sar]A[dA][NMeL][NMeL][NMeV]))	98.77%
C/C=C/C[C@@H](C)[C@@H](O)[C@H]1C(=O)N[C@@H](CC)C(=O)N(C)CC(=O)N(C)[C@H](C)C(=O)N[C@@H](C(C)C)C(=O)N(C)[C@@H](CC(C)C)C(=O)N[C@@H](CC(C)C)C(=O)N[C@H](C)C(=O)N(C)[C@@H](CC(C)C)C(=O)N(C)[C@@H](CC(C)C)C(=O)N(C)[C@@H](C(C)C)C(=O)N1C [C47] (cyclo([MeBmt][Abu][Sar][dNMeA]V[NMeL]L[dA][NMeL][NMeL][NMeV]))	95.71%
C/C=C/C[C@@H](C)[C@@H](O)[C@H]1C(=O)N[C@@H](CC)C(=O)N(C)CC(=O)N(C)[C@@H]([C@@H](C)O)C(=O)N[C@@H](C(C)(C)C)C(=O)N(C)[C@@H](C)C(=O)N[C@@H](CC(C)C)C(=O)N[C@H](C)C(=O)N(C)[C@@H](CC(C)C)C(=O)N(C)[C@@H](CC(C)C)C(=O)N(C)[C@@H](C(C)C)C(=O)N1C [C75] (cyclo([MeBmt][Abu][Sar][NMeT][Tle][NMeA]L[dA][NMeL][NMeL][NMeV]))	96.12%
C/C=C/C[C@@H](C)[C@@H](O)[C@H]1C(=O)N[C@@H](CC)C(=O)N(C)CC(=O)N(C)[C@@H](C(C)C)C(=O)N[C@@H](C(C)(C)C)C(=O)N(C)[C@@H](C)C(=O)N[C@@H](CC(C)C)C(=O)N[C@H](C)C(=O)N(C)[C@@H](CC(C)C)C(=O)N(C)[C@@H](CC(C)C)C(=O)N(C)[C@@H](C(C)C)C(=O)N1C [C77] (cyclo([MeBmt][Abu][Sar][NMeV][Tle][NMeA]L[dA][NMeL][NMeL][NMeV]))	99.56%
C/C=C/C[C@@H](C)[C@@H](O)[C@H]1C(=O)N[C@@H](CC)C(=O)N(C)CC(=O)N(C)[C@H](C)C(=O)N[C@@H](C(C)C)C(=O)N(C)[C@@H](C)C(=O)N[C@@H](CC(C)C)C(=O)N[C@H](C)C(=O)N(C)[C@@H](CC(C)C)C(=O)N(C)[C@@H](CC(C)C)C(=O)N(C)[C@@H](C(C)C)C(=O)N1C [C83] (cyclo([MeBmt][Abu][Sar][dNMeA]V[NMeA]L[dA][NMeL][NMeL][NMeV]))	99.35%
C/C=C/C[C@@H](C)[C@@H](O)[C@H]1C(=O)N[C@@H](CC)C(=O)N(C)CC(=O)N(C)[C@@H](Cc2ccc(O)cc2)C(=O)N[C@@H](C(C)C)C(=O)N(C)[C@@H](CC(C)C)C(=O)N[C@@H](CC)C(=O)N[C@H](C)C(=O)N(C)[C@@H](CC(C)C)C(=O)N(C)[C@@H](CC(C)C)C(=O)N(C)[C@@H](C(C)C)C(=O)N1C [C100] (cyclo([Abu][Sar][NMeY]V[NMeL][Abu][dA][NMeL][NMeL][NMeV][MeBmt]))	95.72%
C/C=C/C[C@@H](C)[C@@H](O)[C@H]1C(=O)N[C@@H](CC)C(=O)N(C)CC(=O)N(C)[C@@H](CCC)C(=O)N[C@@H](C(C)C)C(=O)N(C)[C@@H](CC(C)C)C(=O)N[C@@H](CC)C(=O)N[C@H](C)C(=O)N(C)[C@@H](CC(C)C)C(=O)N(C)[C@@H](CC(C)C)C(=O)N(C)[C@@H](C(C)C)C(=O)N1C [C102] (cyclo([Abu][Sar][NMeNva]V[NMeL][Abu][dA][NMeL][NMeL][NMeV][MeBmt]))	99.30%

Same assay, conditions: read-out: IC50 value of CsA binding to Cyclophilin A

Structure (SMILES)	IC50
C/C=C/C[C@@H](C)[C@@H](O)[C@H]1C(=O)N[C@@H](CC)C(=O)N(C)CC(=O)N(C)[C@H](C)C(=O)N[C@@H](CC(C)C)C(=O)N(C)[C@@H](C)C(=O)N[C@@H](C)C(=O)N[C@H](C)C(=O)N(C)[C@@H](CC(C)C)C(=O)N(C)[C@@H](CC(C)C)C(=O)N(C)[C@@H](C(C)C)C(=O)N1C [C11] (cyclo([MeBmt][Abu][Sar][dNMeA]L[NMeA]A[dA][NMeL][NMeL][NMeV]))	< 2000 nM
C/C=C/C[C@@H](C)[C@@H](O)[C@H]1C(=O)N[C@@H](CC)C(=O)N(C)CC(=O)N(C)[C@H](C)C(=O)N[C@@H](C(C)C)C(=O)N(C)[C@@H](CC(C)C)C(=O)N[C@@H](CC(C)C)C(=O)N[C@H](C)C(=O)N(C)[C@@H](CC(C)C)C(=O)N(C)[C@@H](CC(C)C)C(=O)N(C)[C@@H](C(C)C)C(=O)N1C [C47] (cyclo([MeBmt][Abu][Sar][dNMeA]V[NMeL]L[dA][NMeL][NMeL][NMeV]))	< 2000 nM

Each molecule was assayed on HeLa-FKBP12 cells (assay: Biosensor cell permeability assay, FKBP binding compounds). Details: 72 hrs.
Format: cell-based
Description: This protocol utilizes a modified FKBP or cyclophilin destabilizing mutant to determine the bioactivity of FKBP binding compounds or cyclophilin binding compounds in whole cell assay.
Plate HeLa-FKBP12 cells (for FKBP binding compounds) or HeLa-Cyclophilin A cells (for cyclophilin binding compounds) and seed overnight at 5 k/well (approximately ˜18 hrs.). Using a multi-channel pipet, take out the old media and add ˜125 ul of new media with compounds. Compounds are diluted using DMEM without Phenol Red, 10% FBS, 1× Sodium Pyruvate, 1× Glutamax. Add 125 ul of media with compound per well. Cells are treated with compounds at concentration: 30, 10, 3.33, 1.11, 0.37, 0.12, 0.04 and 0.013 uM. Time points are taken at 72 hrs and plate read using plate reader with excitation/emission: 575/620.
Cell binding/permeability is calculated in fold-change (Total RFU of treated samples/total RFU of DMSO treated samples or total RFU above background (Total RFU minus total RFU of DMSO treated samples).

Structure (SMILES)	IC50
CC[C@H](Cc1ccccc1)[C@@H]1/C=C/C/C=C/C[C@@H](C)[C@H](O)[C@@H](C)[C@@H]2CC[C@@H](C)C(=O)C(O)(O2)C(=O)N2CCC[C@H]2C(=O)O1 [F4]	< 1000 nM
CC[C@H](Cc1cccc(O)c1)[C@@H]1/C=C/C/C=C/C[C@@H](C)[C@H](O)[C@@H](C)[C@@H]2CC[C@@H](C)C(=O)C(O)(O2)C(=O)N2CCCC[C@H]2C(=O)O1 [F20]	< 1000 nM
CC[C@H](Cc1cccc(O)c1)[C@@H]1/C=C/C=C/CC[C@@H](C)[C@H](O)[C@@H](C)[C@@H]2CC[C@@H](C)[C@@](O)(O2)C(=O)C(=O)N2CCCC[C@H]2C(=O)O1 [F21]	< 1000 nM
CC[C@H](Cc1ccccc1)[C@@H]1/C=C/C=C/CC[C@@H](C)C(=O)[C@@H](C)[C@@H]2CC[C@@H](C)[C@@](O)(O2)C(=O)C(=O)N2CCCC[C@H]2C(=O)O1 [F22]	> 1000 nM

Each molecule was assayed against FKBP12 (Homo sapiens, UniProt P62942) (assay: AlphaLISA: inhibition of binding of biotinylated FK506 to FLAG tagged FKBP12). Details: not given.
Chain of FKBP12 (P62942 whole entry, species assumed): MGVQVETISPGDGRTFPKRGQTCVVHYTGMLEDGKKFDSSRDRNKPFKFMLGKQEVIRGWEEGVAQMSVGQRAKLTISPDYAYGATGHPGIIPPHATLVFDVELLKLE
Set-up: made in house
Description: This protocol utilizes Perkin Elmers AlphaLISA technology platform to detect FKBP binders by measuring the inhibition of binding of biotinylated FK506 to FLAG tagged FKBP12.
Add 20 uL of 12.5 nM FKBP-FLAG working stock to each well of the 96-well plate. Add 1 uL of test compound (100% DMSO) to each well of the plate using the Janus MTD head and P20 tips (except control wells). Add 1 uL of DMSO to negative control wells and 1 uL of 50 uM FK506 solution to positive control wells. In the dark, add 20 uL of combined Donor/Acceptor beads to each well. Incubate in the dark for 30 minutes at room temperature. In the dark, add 10 uL of 5 nM biotinylated FK506 working stock to each well. Incubate in the dark for 60 minutes at room temperature. Protect plate from light until reading on Biotek Synergy2 Plate Reader; Alphalisa 96-well protocol (680 excitation/615 emission).

Structure (SMILES)	IC50
CCC(/C=C(\C)C(O)CCC(C)/C=C/C(O)C(C)C1CCC(C)C(O)(C(=O)C(=O)N2CCCCC2C(=O)O)O1)C/C(C)=C/C1=CC(OC)C(O)C=C1 (stereo not drawn) [F15]	1930 nM

Same assay, conditions: read-out: Binding affinity to FKBP12 (by displacement of FK506)

Structure (SMILES)	IC50
CC[C@H](Cc1ccccc1)[C@@H]1CCCCCC(=O)[C@@H](C)[C@H](O)[C@@H](C)[C@@H]2CC[C@@H](C)[C@@](O)(O2)C(=O)C(=O)N2CCCC[C@H]2C(=O)O1 [F24, (S)-1-(2-((2R,3R,6S)-6-((2R,3R,4S,6E,9E,11R,12R)-12-benzyl-3,11-dihydroxy-4-methyl-5-oxotetradeca-6,9-dien-2-yl)-2-hydroxy-3-methyltetrahydro-2H-pyran-2-yl)-2-oxoacetyl)piperidine-2-carboxylic acid C-11 lactone]	0.21 nM
